According to publication doi:10.1101/2021.05.27.445942v1 (biorxiv, 2021):

Target: T1, CmedPR2 (with CmedORco) (Cnaphalocrocis medinalis, UniProt A0A0U3BFF0)
T1 sequence (A0A0U3BFF0 1-434): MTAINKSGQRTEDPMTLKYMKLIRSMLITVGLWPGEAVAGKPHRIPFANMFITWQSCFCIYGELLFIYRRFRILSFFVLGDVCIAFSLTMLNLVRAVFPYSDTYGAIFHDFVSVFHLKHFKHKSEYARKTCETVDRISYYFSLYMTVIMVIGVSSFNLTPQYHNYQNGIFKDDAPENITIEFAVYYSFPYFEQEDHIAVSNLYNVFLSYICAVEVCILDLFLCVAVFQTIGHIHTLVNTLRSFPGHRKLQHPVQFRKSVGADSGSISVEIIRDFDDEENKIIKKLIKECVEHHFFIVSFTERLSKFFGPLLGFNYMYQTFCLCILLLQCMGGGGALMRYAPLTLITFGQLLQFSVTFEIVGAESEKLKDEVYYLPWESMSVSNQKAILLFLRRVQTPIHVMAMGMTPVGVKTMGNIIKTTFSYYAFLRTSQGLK
T1 sequence (H9XFD5 1-473 partner): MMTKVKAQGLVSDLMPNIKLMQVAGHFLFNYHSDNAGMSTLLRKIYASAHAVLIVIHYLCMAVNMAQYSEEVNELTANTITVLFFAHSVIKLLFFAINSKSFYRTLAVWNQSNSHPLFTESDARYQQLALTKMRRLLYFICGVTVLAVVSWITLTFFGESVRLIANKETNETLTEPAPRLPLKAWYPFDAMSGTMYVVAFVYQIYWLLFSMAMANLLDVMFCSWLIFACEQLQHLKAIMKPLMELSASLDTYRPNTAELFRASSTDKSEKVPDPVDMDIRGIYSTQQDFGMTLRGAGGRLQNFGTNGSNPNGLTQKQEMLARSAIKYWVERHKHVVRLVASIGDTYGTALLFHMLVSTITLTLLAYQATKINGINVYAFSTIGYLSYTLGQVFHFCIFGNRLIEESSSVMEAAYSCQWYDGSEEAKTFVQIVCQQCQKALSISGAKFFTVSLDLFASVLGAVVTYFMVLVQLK
Assay: two-electrode voltage clamp, Xenopus oocytes
Format: cell-based
Conditions: agonist 10-4 mol/L; co-expressed CmedORco; holding potential -80 mV; pH 7.5

| response current [nA] | SMILES |
| --- | --- |
| > 140 | CCCCCC/C=C\CCCCCCCC=O [Z9-16:Ald] |
| > 140 | CCCC/C=C\CCCCCCCCCC=O [Z11-16:Ald] |
| 106 ± 6.4 | CCCC/C=C\CCCCCCCCCCCC=O [Z13-18:Ald, (Z)-13-octadecenal] |
| 46 ± 1.6 | CCCC/C=C\CCCCCCCCCCCCO [Z13-18:OH, (Z)-13-octadecen-1-ol] |
